Test results reported in patent publication US20060089378A1 (priority 2004, published 2006).
Like-named read-outs stand apart in the source and are kept apart here.

Key:
[1] = target: T1, Cannabinoid CB1 Receptor (Homo sapiens, UniProt P21554); test: Binding assay for CB1 agonists or inverse agonists (radioligand competition, membranes of transfected SK-N-MC cells); details: for inhibition at 0.2 µM: read-out: Cannabinoid CB1 Receptor Binding percent inhibition
T1 construct: expressed in transfected cells

[2] = target: T2, Cannabinoid CB2 Receptor (Homo sapiens, UniProt P34972); test: Binding assay for CB2 agonists or inverse agonists (radioligand competition, membranes of transfected SK-N-MC cells); details: for inhibition at 0.2 µM: read-out: Cannabinoid CB2 Receptor Binding percent inhibition
T2 construct: expressed in transfected cells

[3] = target: T3, CB2 receptor (human) (Homo sapiens, UniProt P34972); test: Functional cell-based assay, CB2 receptor mediated change in CRE β-gal expression (adenylate cyclase activity) in SK-N-MC cells
T3 construct: expressed in transfected cells

[4] = target: CB1 receptor (human) (Homo sapiens, UniProt P21554); test: cell-based; details: for CB1 Receptor Functional Activity (change in functional activity, CRE β-gal): one compound concentration, β-galactosidase activity relative to vehicle treated cells
[5] = human CB2, SK-N-MC cell membranes, calculated by linear regression from percent inhibition at various concentrations, read-out: Cannabinoid CB2 Receptor Binding IC50
[6] = human CB1, SK-N-MC cell membranes, calculated by linear regression from percent inhibition at various concentrations, read-out: Cannabinoid CB1 Receptor Binding IC50

CB1 receptor (human), sequence (P21554 whole entry): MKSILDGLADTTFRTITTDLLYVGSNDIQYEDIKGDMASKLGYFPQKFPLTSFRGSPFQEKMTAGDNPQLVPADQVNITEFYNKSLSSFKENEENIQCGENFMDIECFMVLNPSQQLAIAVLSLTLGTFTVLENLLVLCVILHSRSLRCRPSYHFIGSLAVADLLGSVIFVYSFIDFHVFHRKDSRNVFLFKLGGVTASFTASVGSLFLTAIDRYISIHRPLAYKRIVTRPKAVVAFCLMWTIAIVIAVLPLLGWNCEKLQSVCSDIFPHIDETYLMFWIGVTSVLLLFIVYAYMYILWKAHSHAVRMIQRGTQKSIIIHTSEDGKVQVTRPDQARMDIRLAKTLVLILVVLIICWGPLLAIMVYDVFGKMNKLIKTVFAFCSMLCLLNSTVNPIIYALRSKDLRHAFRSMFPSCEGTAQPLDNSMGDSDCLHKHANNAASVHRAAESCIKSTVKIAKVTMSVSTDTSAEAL
T1 sequence (P21554 whole entry): as above
T3 sequence (P34972 whole entry): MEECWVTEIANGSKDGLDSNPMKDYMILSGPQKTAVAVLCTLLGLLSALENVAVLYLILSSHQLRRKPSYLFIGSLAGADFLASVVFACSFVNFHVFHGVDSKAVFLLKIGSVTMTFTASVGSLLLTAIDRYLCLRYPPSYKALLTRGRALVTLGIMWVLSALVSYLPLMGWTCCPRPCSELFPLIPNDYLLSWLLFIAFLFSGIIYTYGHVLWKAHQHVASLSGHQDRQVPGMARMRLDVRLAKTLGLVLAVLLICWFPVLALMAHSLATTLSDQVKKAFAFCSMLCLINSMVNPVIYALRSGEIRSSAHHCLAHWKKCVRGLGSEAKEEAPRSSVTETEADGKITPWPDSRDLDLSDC
T2 sequence (P34972 whole entry): as above

Compound | IC50 [1] [nM] | IC50 [2] [nM] | EC50 [4] [nM] | CB1 Receptor Functional Activity (change in functional activity, CRE β-gal) [4] [%] | other results
COC(=O)N1CCc2c(c(C(=O)NC3C4(C)CCC(C4)C3(C)C)nn2Cc2ccccc2)C1 (stereo not shown) [Cpd 106, 1-benzyl-3-(1,3,3-trimethyl-bicyclo[2.2.1]hept-2-ylcarbamoyl)-1,4,6,7-tetrahydro-pyrazolo[4,3-c]pyridine-5-carboxylic acid methyl ester] | 200 | 2 | 8900 | – | EC50 [3]: 0.8 nM
CCOC(=O)N1CCc2c(c(C(=O)NC3C4(C)CCC(C4)C3(C)C)nn2Cc2ccccc2)C1 (stereo not shown) [Cpd 107, 1-benzyl-3-(1,3,3-trimethyl-bicyclo[2.2.1]hept-2-ylcarbamoyl)-1,4,6,7-tetrahydro-pyrazolo[4,3-c]pyridine-5-carboxylic acid ethyl ester] | 100 | 3 | – | −6 | EC50 [3]: 6 nM
CCOC(=O)N1CCc2c(c(C(=O)NC3C4(C)CCC(C4)C3(C)C)nn2-c2ccccc2)C1 (stereo not shown) [Cpd 113, 1-phenyl-3-(1,3,3-trimethyl-bicyclo[2.2.1]hept-2-ylcarbamoyl)-1,4,6,7-tetrahydro-pyrazolo[4,3-c]pyridine-5-carboxylic acid ethyl ester] | 2300 | 80 | – | 57 | –
CCNC(=O)N1CCc2c(c(C(=O)NC3C4(C)CCC(C4)C3(C)C)nn2-c2ccccc2)C1 (stereo not shown) [Cpd 114, 1-phenyl-1,4,6,7-tetrahydro-pyrazolo[4,3-c]pyridine-3,5-dicarboxylic acid 5-ethylamide 3-[(1,3,3-trimethyl-bicyclo[2.2.1]hept-2-yl)-amide]] | – | – | – | 51 | inhibition at 0.2 µM [1]: 51%; inhibition at 0.2 µM [2]: 34%
COC(=O)N1CCc2c(c(C(=O)NC3C4(C)CCC(C4)C3(C)C)nn2-c2ccccc2)C1 (stereo not shown) [Cpd 115, 1-phenyl-3-(1,3,3-trimethyl-bicyclo[2.2.1]hept-2-ylcarbamoyl)-1,4,6,7-tetrahydro-pyrazolo[4,3-c]pyridine-5-carboxylic acid methyl ester] | 2700 | 90 | – | 81 | –
CCCCn1nc(C(=O)NC2C3(C)CCC(C3)C2(C)C)c2c1CCN(C(=O)OC)C2 (stereo not shown) [Cpd 116, 1-butyl-3-(1,3,3-trimethyl-bicyclo[2.2.1]hept-2-ylcarbamoyl)-1,4,6,7-tetrahydro-pyrazolo[4,3-c]pyridine-5-carboxylic acid methyl ester] | 100 | – | 2900 | – | inhibition at 0.2 µM [2]: 53%
CC(C)(C)OC(=O)N1CCc2c(c(C(=O)NC3C4(C)CCC(C4)C3(C)C)nn2C2CCCCC2)C1 (stereo not shown) [Cpd 117, 1-cyclohexyl-3-(1,3,3-trimethyl-bicyclo[2.2.1]hept-2-ylcarbamoyl)-1,4,6,7-tetrahydro-pyrazolo[4,3-c]pyridine-5-carboxylic acid tert-butyl ester] | 11700 | 10 | – | −10 | EC50 ([3]; SK-N-MC cells expressing CRE β-gal and human CB2, forskolin, β-galactosidase activity, varying compound concentrations, read-out: CB2 Receptor Functional Inverse Agonist EC50): 90 nM
CC12CCC(C1)C(C)(C)C2NC(=O)c1nn(C2CCCCC2)c2c1CNCC2 (stereo not shown) [Cpd 118, 1-cyclohexyl-4,5,6,7-tetrahydro-1H-pyrazolo[4,3-c]pyridine-3-carboxylic acid (1,3,3-trimethyl-bicyclo[2.2.1]hept-2-yl)-amide] | 800 | – | – | 4 | IC50 [2, 5]: 1800 nM
COC(=O)N1CCc2c(c(C(=O)NC3C4(C)CCC(C4)C3(C)C)nn2C2CCCCC2)C1 (stereo not shown) [Cpd 119, 1-cyclohexyl-3-(1,3,3-trimethyl-bicyclo[2.2.1]hept-2-ylcarbamoyl)-1,4,6,7-tetrahydro-pyrazolo[4,3-c]pyridine-5-carboxylic acid methyl ester] | 200 | 90 | 200 | – | EC50 [3]: 20 nM
CCC(=O)N1CCc2c(c(C(=O)NC3C4(C)CCC(C4)C3(C)C)nn2C2CCCCC2)C1 (stereo not shown) [Cpd 122, 1-cyclohexyl-5-propionyl-4,5,6,7-tetrahydro-1H-pyrazolo[4,3-c]pyridine-3-carboxylic acid (1,3,3-trimethyl-bicyclo[2.2.1]hept-2-yl)-amide] | 600 | 10 | 900 | – | –
CC(=O)N1CCc2c(c(C(=O)NC3C4(C)CCC(C4)C3(C)C)nn2C2CCCCC2)C1 (stereo not shown) [Cpd 123, 5-acetyl-1-cyclohexyl-4,5,6,7-tetrahydro-1H-pyrazolo[4,3-c]pyridine-3-carboxylic acid (1,3,3-trimethyl-bicyclo[2.2.1]hept-2-yl)-amide] | 200 | 40 | – | – | EC50 [3]: 14 nM
Cc1ccc(S(=O)(=O)N2CCc3c(c(C(=O)NC4C5(C)CCC(C5)C4(C)C)nn3C3CCCCC3)C2)cc1 (stereo not shown) [Cpd 124, 1-cyclohexyl-5-(toluene-4-sulfonyl)-4,5,6,7-tetrahydro-1H-pyrazolo[4,3-c]pyridine-3-carboxylic acid (1,3,3-trimethyl-bicyclo[2.2.1]hept-2-yl)-amide] | 1500 | 20 | – | – | EC50 [3]: 30 nM
Cc1ccc(S(=O)(=O)N2CCc3c(c(C(=O)NC4C5(C)CCC(C5)C4(C)C)nn3Cc3ccccc3)C2)cc1 (stereo not shown) [Cpd 125, 1-benzyl-5-(toluene-4-sulfonyl)-4,5,6,7-tetrahydro-1H-pyrazolo[4,3-c]pyridine-3-carboxylic acid (1,3,3-trimethyl-bicyclo[2.2.1]hept-2-yl)-amide] | – | 30 | – | 27 | IC50 [1, 6]: 200 nM
CN(C)S(=O)(=O)N1CCc2c(c(C(=O)NC3C4(C)CCC(C4)C3(C)C)nn2C2CCCCC2)C1 (stereo not shown) [Cpd 127, 1-cyclohexyl-5-dimethylsulfamoyl-4,5,6,7-tetrahydro-1H-pyrazolo[4,3-c]pyridine-3-carboxylic acid (1,3,3-trimethyl-bicyclo[2.2.1]hept-2-yl)-amide] | 2600 | 900 | – | 28 | –
COC(=O)CN1CCc2c(c(C(=O)NC3C4(C)CCC(C4)C3(C)C)nn2C2CCCCC2)C1 (stereo not shown) [Cpd 128, [1-cyclohexyl-3-(1,3,3-trimethyl-bicyclo[2.2.1]hept-2-ylcarbamoyl)-1,4,6,7-tetrahydro-pyrazolo[4,3-c]pyridin-5-yl]-acetic acid methyl ester] | – | – | – | −7 | IC50 [1, 6]: 700 nM; IC50 [2, 5]: 400 nM
COC(=O)N1CCc2c(c(C(=O)NC3C4CC5CC(C4)CC3C5)nn2C2CCCCC2)C1 (stereo not shown) [Cpd 131, 3-(adamantan-2-ylcarbamoyl)-1-cyclohexyl-1,4,6,7-tetrahydro-pyrazolo[4,3-c]pyridine-5-carboxylic acid methyl ester] | – | – | – | −49 | IC50 [1, 6]: 2700 nM; IC50 [2, 5]: 200 nM
CN(C)C(=O)N1CCc2c(c(C(=O)NC3C4CC5CC(C4)CC3C5)nn2C2CCCCC2)C1 (stereo not shown) [Cpd 132, 1-cyclohexyl-1,4,6,7-tetrahydro-pyrazolo[4,3-c]pyridine-3,5-dicarboxylic acid 3-adamantan-2-ylamide 5-dimethylamide] | – | – | – | −42 | IC50 [1, 6]: 5500 nM; IC50 [2, 5]: 200 nM
CC(=O)N1C/C(=C\c2ccc(F)cc2)c2c(c(C(=O)N(C(C)=O)N3CCCCC3)nn2-c2ccc(Cl)cc2Cl)C1 [Cpd 134, (7E)-5-acetyl-1-(2,4-dichloro-phenyl)-7-(4-fluoro-benzylidene)-4,5,6,7-tetrahydro-1H-pyrazolo[4,3-c]pyridine-3-carboxylic acid acetyl-piperidin-1-yl-amide] | – | – | 20 | – | inhibition at 0.2 µM [1]: 50%; inhibition at 0.2 µM [2]: 26%
C[C@@H](NC(=O)c1nn(-c2ccc(Cl)cc2Cl)c2c1CN(C(=O)OC(C)(C)C)C/C2=C\c1ccc(F)cc1)c1ccccn1 [Cpd 138, (7E)-1-(2,4-dichloro-phenyl)-7-(4-fluoro-benzylidene)-3-[(1R)-1-pyridin-2-yl-ethylcarbamoyl]-1,4,6,7-tetrahydro-pyrazolo[4,3-c]pyridine-5-carboxylic acid tert-butyl ester] | 30 | – | 9 | – | inhibition at 0.2 µM [2]: 21%
C[C@@H](NC(=O)c1nn(-c2ccc(Cl)cc2Cl)c2c1CNC/C2=C\c1ccc(F)cc1)c1ccccn1 [Cpd 139, (7E)-1-(2,4-dichloro-phenyl)-7-(4-fluoro-benzylidene)-4,5,6,7-tetrahydro-1H-pyrazolo[4,3-c]pyridine-3-carboxylic acid [(1R)-1-pyridin-2-yl-ethyl]-amide] | 40 | – | 30 | – | inhibition at 0.2 µM [2]: 16%
C[C@@H](NC(=O)c1nn(-c2ccc(Cl)cc2Cl)c2c1CN(S(C)(=O)=O)C/C2=C\c1ccc(F)cc1)c1ccccn1 [Cpd 140, (7E)-1-(2,4-dichloro-phenyl)-7-(4-fluoro-benzylidene)-5-methanesulfonyl-4,5,6,7-tetrahydro-1H-pyrazolo[4,3-c]pyridine-3-carboxylic acid [(1R)-1-pyridin-2-yl-ethyl]-amide] | – | – | 2 | – | inhibition at 0.2 µM [1]: 96%; inhibition at 0.2 µM [2]: 9%
(7E)-1-(4-chloro-phenyl)-5-methanesulfonyl-7-(4-methoxy-benzylidene)-4,5,6,7-tetrahydro-1H-pyrazolo[4,3-c]pyridine-3-carboxylic acid (1-pyridin-2-yl-ethyl)-amide [Cpd 78] | – | – | – | – | IC50 [1, 6]: 7 nM; Cannabinoid CB2 Receptor Binding percent inhibition ([2]; test concentration of 0.2 μM, compounds without an IC50 binding value): 17%; EC50 ([4]; SK-N-MC cells expressing CRE β-gal and human CB1, forskolin, β-galactosidase activity, varying compound concentrations, read-out: CB1 Receptor Functional Inverse Agonist EC50): 3 nM
